Data reported in PubChem BioAssay AID1963852 (Molecular Pharmacology Branch, DTP, NCI, 2024).

Tested on: 282377-053-R-J1-PDC complex spheroid viability
Experiment: Anticancer human tumor 282377-053-R-J1-PDC patient-derived colon adenocarcinoma cell line growth inhibition [POLQ]
Details: for IC50: curve of first compound; for viability, T/C: stronger effect = lower value
Protocol: Multicellular complex tumor spheroid response to Polymerase (POL) inhibitors (novobiocin, ART-558, RP6685) in combination with a variety of drugs and investigational agents in selected tumor cell lines
The POL inhibitors (novobiocin, ART-558, and RP6685) were evaluated both individually and in combination with standard of care and investigational anticancer small molecules within a complex spheroid model of solid tumors. . Complex spheroids include a stromal component modeled by human endothelial cells (HUVEC) and fibroblasts modeled by human mesenchymal stem cells (MSCs). The concentration ranges selected for each drug and investigational agent were based upon clinically achievable concentrations if the clinical Cmax of the agent was known.
Compounds. The drugs and investigational agents: novobiocin (NSC847541), ART-558 (NSC835418), RP-6685 (NSC848927), peposertib (NSC802822), ceralasertib (NSC780249), elimusertib (NSC800525), camonsertib (NSC841442), AZD-1390 (NSC803789), olaparib (NSC753686), talazoparib (NSC767125), rucaparib (NSC756644), sotorasib (NSC818433), MRTX-1133 (NSC836407), SN-38 (NSC673596), topotecan (NSC609699), epotoside (NSC141540), doxorubicin (NSC123127), gemcitabine (NSC613327), 5-fluorouracil (NSC19893), paclitaxel (NSC125973), vemurafenib (NSC761431), MSA-2 (NSC828583), SN-011 (NSC837082), adavosertib (NSC754352), prexasertib (NSC758257), carboplatin (NSC241240) and oxaliplatin (NSC266046), were obtained from the National Cancer Institute (NCI) Developmental Therapeutics Program Chemical Repository (21). The FDA-approved anticancer drug set is available from the Developmental Therapeutics Program at https://dtp.cancer.gov/organization/dscb/obtaining/. […] The stock solutions were prepared in dimethyl sulfoxide (DMSO, Sigma-Aldrich, St. Louis, MO, cat. D2650), except for the platinum compounds which were prepared in saline (Quality Biological, Gaithersburg, MD, cat. 114-055-101), at 800-fold the tested concentration and stored at -70 degrees C prior to their use. All drugs and investigational agents were tested over a range starting from a high concentration at or near the clinical Cmax and decreasing in half-log increments. If the clinical Cmax for an agent had not been determined, the highest concentration tested was 10 microM, except for SN-38, which was tested at a high concentration of 1 microM.
Cell Culture. All cells were maintained in an incubator at 37 degrees C and 5% CO2 with 95% humidity. The PDC lines were cultured according to standard operating procedures established by the NCI PDMR (https://pdmr.cancer.gov). Table 3 of the manuscript, lists the cell lines along with the number of the three cell types plated to form the mct-spheroids and media for tumor cell growth. After thawing, all PDC lines, except 997537-175-T-J1-PDC and 415267-285-R-J2-PDC, were cultured in Matrigel-coated flasks prepared with a working solution of 1X Ham's F-12 nutrient mix, without supplementation (Thermo Fisher Scientific, cat. 11765054), 100 U/mL penicillin-streptomycin (Thermo Fisher Scientific, cat. 15140122), and 2.5% Matrigel (Corning Inc., Corning, NY, cat. 354248) for the first three passages. The two PDC lines 997537-175-T-J1-PDC and 415267-285-R-J2-PDC were cultured on uncoated flasks. The 857933-349-R-J2-PDC line was cultured in 6C/Colon 1B media containing advanced DMEM/F-12 (Thermo Fisher Scientific, cat. 12634028), 10 mM HEPES (Thermo Fisher Scientific, cat. 15630080), 1X GlutaMAX supplement (Thermo Fisher Scientific, cat. 35050061), 0.1 mg/mL primocin (InvivoGen, San Diego, CA, cat. ant-pm-2), 10% defined fetal bovine serum, heat inactivated (HyClone Laboratories Inc., Logan, UT, cat. SH30070.03HI), 50% L-WRN conditioned media (ATCC, cat. CRL-3276), 1.25 mM N-Acetyl-L-cysteine (Sigma-Aldrich, cat. A9165), 10 mM nicotinamide (Sigma-Aldrich, cat. N0636), 1X B-27 supplement (Thermo Fisher Scientific, cat. 17504044), 1X N-2 supplement (Thermo Fisher Scientific, cat. […]

[1] = second compound 0.0316 µM, first compound 0.00316 µM
[2] = second compound 0.0316 µM, first compound 0.01 µM
[3] = second compound 0.0316 µM, first compound 0.0316 µM
[4] = second compound 0.0316 µM, first compound 0.1 µM
[5] = second compound 0.0316 µM, first compound 0.316 µM
[6] = second compound 0.0316 µM, first compound 1 µM
[7] = second compound 0.1 µM, first compound 0.00316 µM
[8] = second compound 0.1 µM, first compound 0.01 µM
[9] = second compound 0.1 µM, first compound 0.0316 µM
[10] = second compound 0.1 µM, first compound 0.1 µM
[11] = second compound 0.1 µM, first compound 0.316 µM
[12] = second compound 0.1 µM, first compound 1 µM
[13] = second compound 0.316 µM, first compound 0.00316 µM
[14] = second compound 0.316 µM, first compound 0.01 µM
[15] = second compound 0.316 µM, first compound 0.0316 µM
[16] = second compound 0.316 µM, first compound 0.1 µM
[17] = second compound 0.316 µM, first compound 0.316 µM
[18] = second compound 0.316 µM, first compound 1 µM
[19] = second compound 1 µM, first compound 0.00316 µM
[20] = second compound 1 µM, first compound 0.01 µM
[21] = second compound 1 µM, first compound 0.0316 µM
[22] = second compound 1 µM, first compound 0.1 µM
[23] = second compound 1 µM, first compound 0.316 µM
[24] = second compound 1 µM, first compound 1 µM
[25] = second compound 3.16 µM, first compound 0.00316 µM
[26] = second compound 3.16 µM, first compound 0.01 µM
[27] = second compound 3.16 µM, first compound 0.0316 µM
[28] = second compound 3.16 µM, first compound 0.1 µM
[29] = second compound 3.16 µM, first compound 0.316 µM
[30] = second compound 3.16 µM, first compound 1 µM
[31] = second compound 10 µM, first compound 0.00316 µM
[32] = second compound 10 µM, first compound 0.01 µM
[33] = second compound 10 µM, first compound 0.0316 µM
[34] = second compound 10 µM, first compound 0.1 µM
[35] = second compound 10 µM, first compound 0.316 µM
[36] = second compound 10 µM, first compound 1 µM
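Note: spheroids exposed to compounds for seven days.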
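Throughout, for viability, T/C: 100% = DMSO vehicle control viability.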

C=CCn1c(=O)c2cnc(Nc3ccc(N4CCN(C)CC4)cc3)nc2n1-c1cccc(C(C)(C)O)n1 + Cc1cccc(N(C)C(=O)C2C(O)CCN2c2nc(C)cc(C(F)(F)F)c2C#N)c1
IC50 (second compound 0.0316 µM): > 1000 nM | IC50 (second compound 0.1 µM): > 1000 nM | IC50 (second compound 0.316 µM): > 1000 nM | IC50 (second compound 1 µM): > 1000 nM | IC50 (second compound 3.16 µM): > 1000 nM | IC50 (second compound 10 µM): > 1000 nM | viability, T/C [1]: 106% | viability, T/C [2]: 107% | viability, T/C [3]: 107% | viability, T/C [4]: 96.9% | viability, T/C [5]: 93.6% | viability, T/C [6]: 76.6% | viability, T/C [7]: 95.6% | viability, T/C [8]: 110% | viability, T/C [9]: 94.3% | viability, T/C [10]: 102% | viability, T/C [11]: 92.2% | viability, T/C [12]: 68.4% | viability, T/C [13]: 107% | viability, T/C [14]: 103% | viability, T/C [15]: 96.8% | viability, T/C [16]: 91.1% | viability, T/C [17]: 90.6% | viability, T/C [18]: 71.8% | viability, T/C [19]: 109% | viability, T/C [20]: 97% | viability, T/C [21]: 94.8% | viability, T/C [22]: 89.1% | viability, T/C [23]: 89.2% | viability, T/C [24]: 73% | viability, T/C [25]: 104% | viability, T/C [26]: 102% | viability, T/C [27]: 102% | viability, T/C [28]: 93.2% | viability, T/C [29]: 98.3% | viability, T/C [30]: 70.2% | viability, T/C [31]: 99.9% | viability, T/C [32]: 103% | viability, T/C [33]: 93.7% | viability, T/C [34]: 98.9% | viability, T/C [35]: 94.3% | viability, T/C [36]: 85.4%

CCc1c2c(nc3ccc(O)cc13)-c1cc3c(c(=O)n1C2)COC(=O)[C@]3(O)CC + Cc1cccc(N(C)C(=O)C2C(O)CCN2c2nc(C)cc(C(F)(F)F)c2C#N)c1
IC50 (second compound 0.0316 µM): 50.3 nM | IC50 (second compound 0.1 µM): 180 nM | IC50 (second compound 0.316 µM): 71.5 nM | IC50 (second compound 1 µM): 116 nM | IC50 (second compound 3.16 µM): 70.2 nM | IC50 (second compound 10 µM): 57.5 nM | viability, T/C [1]: 122% | viability, T/C [2]: 76.2% | viability, T/C [3]: 51.8% | viability, T/C [4]: 49.2% | viability, T/C [5]: 40.1% | viability, T/C [6]: 23.2% | viability, T/C [7]: 97.1% | viability, T/C [8]: 81.6% | viability, T/C [9]: 72% | viability, T/C [10]: 62.4% | viability, T/C [11]: 41.5% | viability, T/C [12]: 21.8% | viability, T/C [13]: 102% | viability, T/C [14]: 74.9% | viability, T/C [15]: 54.4% | viability, T/C [16]: 52% | viability, T/C [17]: 41.4% | viability, T/C [18]: 25.7% | viability, T/C [19]: 110% | viability, T/C [20]: 86.8% | viability, T/C [21]: 53.5% | viability, T/C [22]: 51.6% | viability, T/C [23]: 44.8% | viability, T/C [24]: 17.2% | viability, T/C [25]: 104% | viability, T/C [26]: 69.3% | viability, T/C [27]: 63.5% | viability, T/C [28]: 44.4% | viability, T/C [29]: 40.8% | viability, T/C [30]: 22.5% | viability, T/C [31]: 106% | viability, T/C [32]: 87.5% | viability, T/C [33]: 49.5% | viability, T/C [34]: 42.5% | viability, T/C [35]: 37.4% | viability, T/C [36]: 16.7%

O=c1[nH]cc(F)c(=O)[nH]1 + Cc1cccc(N(C)C(=O)C2C(O)CCN2c2nc(C)cc(C(F)(F)F)c2C#N)c1
IC50 (second compound 0.0316 µM): > 10000 nM | IC50 (second compound 0.1 µM): > 10000 nM | IC50 (second compound 0.316 µM): > 10000 nM | IC50 (second compound 1 µM): > 10000 nM | IC50 (second compound 3.16 µM): > 10000 nM | IC50 (second compound 10 µM): > 10000 nM | viability, T/C [3]: 111% | viability, T/C [4]: 104% | viability, T/C [5]: 89.8% | viability, T/C [6]: 78.8% | viability, T/C (second compound 0.0316 µM, first compound 3.16 µM): 70.3% | viability, T/C (second compound 0.0316 µM, first compound 10 µM): 68.5% | viability, T/C [9]: 102% | viability, T/C [10]: 111% | viability, T/C [11]: 128% | viability, T/C [12]: 86% | viability, T/C (second compound 0.1 µM, first compound 3.16 µM): 76.7% | viability, T/C (second compound 0.1 µM, first compound 10 µM): 70.4% | viability, T/C [15]: 117% | viability, T/C [16]: 88.7% | viability, T/C [17]: 116% | viability, T/C [18]: 74.9% | viability, T/C (second compound 0.316 µM, first compound 3.16 µM): 80.3% | viability, T/C (second compound 0.316 µM, first compound 10 µM): 67.9% | viability, T/C [21]: 107% | viability, T/C [22]: 85.5% | viability, T/C [23]: 105% | viability, T/C [24]: 104% | viability, T/C (second compound 1 µM, first compound 3.16 µM): 82.7% | viability, T/C (second compound 1 µM, first compound 10 µM): 63.1% | viability, T/C [27]: 99.1% | viability, T/C [28]: 104% | viability, T/C [29]: 80.6% | viability, T/C [30]: 88.6% | viability, T/C (second compound 3.16 µM, first compound 3.16 µM): 80.1% | viability, T/C (second compound 3.16 µM, first compound 10 µM): 68.7% | viability, T/C [33]: 113% | viability, T/C [34]: 109% | viability, T/C [35]: 107% | viability, T/C [36]: 76.4% | viability, T/C (second compound 10 µM, first compound 3.16 µM): 69.7% | viability, T/C (second compound 10 µM, first compound 10 µM): 63.8%
